Test results published in US6974799B2, “Compositions containing mixtures of tetrapeptides and tripeptides” (Sederma S.A.S., priority 2003, dated 2005).
No end group written: not given here. *: point of attachment. Oleoyl = CCCCCCCC/C=C\CCCCCCCC(=O)*; Palmitoyl = CCCCCCCCCCCCCCCC(=O)*

Experiments:
Collagen I = Collagen I in supernatant of normal human skin fibroblasts, Elisa; format: cell-based; settings: for Collagen I: Percentage of variation with respect to solvent: 3 × 10E−4% ascorbic acid, 3 days; for collagen I stimulation (in words): alone or in combination; for collagen I stimulation (in words) / effect on biomolecule synthesis under these experimental conditions (in words): Table 1 conditions
Experimental: In generating the data in Table 1, normal human skin fibroblasts were cultivated in 24 well-plates in DMEM with 10% of Fetal Calf Serum (“FCS”) during 24 h, then rinsed. The cells then received the products to be tested in a medium DMEM without FCS (“Fetal Calf Serum”) containing ascorbic acid. The contact of cells with product was carried out during 3 days, then supernatants was taken and frozen. Each test includes a negative control without solvent, a control solvent and a positive control (10^−6% of Transforming Growth Factor-β (“TGF-β”)). Each determination was carried out n=3. Several repetitions independent of the tests can be made. Assaying of the interesting molecules was carried out by Elisa (Collagen I & IV; Fibronectine) or by a colorimetric method (hyaluronic acid).
(§1) Normal human skin fibroblasts are cultivated in 24 well-plates in DMEM with 10% of FCS during 24 h, then rinsed. The cells then received the products to be tested in a medium DMEM without FCS containing ascorbic acid. The contact of cells with product was carried out during 3 days, then supernatants are taken and frozen. Each test included a negative control without solvent, a control solvent and a positive control (10^E-6% of TGF-β). Each determination was carried out n=3. Several repetitions independent of the tests were made. Assaying of the interesting molecules was carried out by Elisa (Collagen I & IV; Fibronectine) and by a calorimetric method (hyaluronic acid).

Fibronectin = Fibronectin in supernatant of normal human skin fibroblasts, Elisa; format: cell-based; settings: 3 × 10E−4% ascorbic acid, 3 days
Experimental: (§2) In generating the data in Table 1, normal human skin fibroblasts were cultivated in 24 well-plates in DMEM with 10% of Fetal Calf Serum (“FCS”) during 24 h, then rinsed. The cells then received the products to be tested in a medium DMEM without FCS (“Fetal Calf Serum”) containing ascorbic acid. The contact of cells with product was carried out during 3 days, then supernatants was taken and frozen. Each test includes a negative control without solvent, a control solvent and a positive control (10^−6% of Transforming Growth Factor-β (“TGF-β”)). Each determination was carried out n=3. Several repetitions independent of the tests can be made. Assaying of the interesting molecules was carried out by Elisa (Collagen I & IV; Fibronectine) or by a colorimetric method (hyaluronic acid). […] Higher concentrations were not tested because of cytotoxicity, and the other biomolecules were not assayed (n.t.=not tested) because of the lack of initial response in collagen I stimulation, which is the essential, primary parameter.
as §1

Hyaluronic Acid = assay: Hyaluronic acid in supernatant of normal human skin fibroblasts, colorimetric method; format: cell-based; settings: 3 × 10E−4% ascorbic acid, 3 days
Experimental: as §2, §1

Collagen IV = Collagen IV in supernatant of normal human skin fibroblasts, Elisa; format: cell-based; settings: 3 × 10E−4% ascorbic acid, 3 days
Experimental: as §2, §1

collagen [1] = assay: Increase in synthesis of collagen (in vitro), fibroblasts of human skin, ELISA; format: cell-based; settings: 72 hours
Experimental: Fibroblasts of human skin are incubated for 72 hours in two culture mediums enriched in vitamin C (1.5 and 15 ppm), in the presence of the peptide N-palmitoyl-Gly-Gln-Pro-Arg (SEQ ID NO: 3) at two different concentrations, 2.5 ppm and 3.6 ppm. After this incubation, the media is collected and cell viability is evaluated by MTT assay. The measurement of collagen is then carried out by ELISA in each cell lysate. Tests were done in triplicate.
In parallel, negative controls should be carried out under the same conditions, but in the absence of the peptides.
The following results, shown in Table 2, give the increase of collagen synthesis compared to the results obtained in the blank tests (without peptide): […]

collagen [2] = settings: background statement on EYELISS components; cited from earlier work

**Q.** Which “Collagen I: Percentage of variation with respect to solvent” value (“Collagen I: Percentage of variation” below) (Collagen I; 1 ppm) does the source give for Acetyl-YGG here?
**A.** −2%

**Q.** And the “Collagen I: Percentage of variation” value (Collagen I; 3 ppm)?
**A.** +5%

**Q.** What about the “Collagen I: Percentage of variation” value (Collagen I; 5 ppm) of the same substance?
**A.** −11%

**Q.** What about the “collagen I stimulation (in words)” value (Collagen I) of the same substance?
**A.** do not show collagen I stimulation

**Q.** For “N-Palmitoyl-Gly-Gln-Pro-Arg (Palmitoyl-GQPR) [Pal GQPR, 500 ppm solution sold as RIGIN by SEDERMA]”, which “Fibronectin: Percentage of variation with respect to solvent” value (“Fibronectin: Percentage of variation” below) (Fibronectin; 0.5 ppm) is on record?
**A.** +1%

**Q.** And the “Fibronectin: Percentage of variation” value (Fibronectin; 1.5 ppm)?
**A.** +15%

**Q.** And the “Fibronectin: Percentage of variation” value (Fibronectin; 2.5 ppm)?
**A.** +35%

**Q.** What about the “Fibronectin: Percentage of variation” value (Fibronectin; 3.64 ppm) of the same substance?
**A.** +56%

**Q.** What about the “Hyaluronic Acid: Percentage of variation with respect to solvent” value (from here on “Hyaluronic Acid: Percentage of variation”) (Hyaluronic Acid; 0.5 ppm) of the same substance?
**A.** −4%

**Q.** What about the “Hyaluronic Acid: Percentage of variation” value (Hyaluronic Acid; 1.5 ppm) of the same substance?
**A.** +9%

**Q.** And the “Hyaluronic Acid: Percentage of variation” value (Hyaluronic Acid; 2.5 ppm)?
**A.** −13%

**Q.** And the “Hyaluronic Acid: Percentage of variation” value (Hyaluronic Acid; 3.64 ppm)?
**A.** −1%

**Q.** And the “Collagen I: Percentage of variation” value (Collagen I; 0.5 ppm)?
**A.** +4%

**Q.** What about the “Collagen I: Percentage of variation” value (Collagen I; 1.5 ppm) of the same substance?
**A.** −1%

**Q.** And the “Collagen I: Percentage of variation” value (Collagen I; 2.5 ppm)?
**A.** +19%

**Q.** And the “Collagen I: Percentage of variation” value (Collagen I; 2.5 ppm, listed as N-Palmitoyl-Gly-Gln-Pro-Arg)?
**A.** +19%

**Q.** And the “Collagen I: Percentage of variation” value (Collagen I; 3.64 ppm)?
**A.** +65%

**Q.** What about the “Collagen I: Percentage of variation” value (Collagen I; 3.64 ppm, listed as tetrapeptide) of the same substance?
**A.** +65%

**Q.** What about the “effect on biomolecule synthesis under these experimental conditions (in words)” value (Collagen I) of the same substance?
**A.** stimulating effect

**Q.** And the “Collagen IV: Percentage of variation with respect to solvent” value (shortened to “Collagen IV: Percentage of variation”) (Collagen IV; 0.5 ppm)?
**A.** +5%

**Q.** What about the “Collagen IV: Percentage of variation” value (Collagen IV; 1.5 ppm) of the same substance?
**A.** −8%

**Q.** What about the “Collagen IV: Percentage of variation” value (Collagen IV; 2.5 ppm) of the same substance?
**A.** −5%

**Q.** What about the “Collagen IV: Percentage of variation” value (Collagen IV; 3.64 ppm) of the same substance?
**A.** −14%

**Q.** What about the “increase of collagen synthesis compared to blank tests (without peptide)” value (“increase … (without peptide)” below) (collagen [1]; peptide 2.5 ppm, Vitamin C 1.5 ppm) of the same substance?
**A.** +10%

**Q.** And the “increase … (without peptide)” value (collagen [1]; peptide 2.5 ppm, Vitamin C 15 ppm)?
**A.** +27%

**Q.** What about the “increase … (without peptide)” value (collagen [1]; peptide 3.6 ppm, Vitamin C 1.5 ppm) of the same substance?
**A.** +29%

**Q.** And the “increase … (without peptide)” value (collagen [1]; peptide 3.6 ppm, Vitamin C 15 ppm)?
**A.** +42%

**Q.** For N-Palmitoyl-Gly-His-Lys [Pal GHK], which “Fibronectin: Percentage of variation” value (Fibronectin; 1 ppm) is on record?
**A.** +8%

**Q.** And the “Fibronectin: Percentage of variation” value (Fibronectin; 3 ppm)?
**A.** +2%

**Q.** And the “Fibronectin: Percentage of variation” value (Fibronectin; 5 ppm)?
**A.** −15%

**Q.** And the “Fibronectin: Percentage of variation” value (Fibronectin; 7.3 ppm)?
**A.** +13%

**Q.** And the “Hyaluronic Acid: Percentage of variation” value (Hyaluronic Acid; 1 ppm)?
**A.** +3%

**Q.** And the “Hyaluronic Acid: Percentage of variation” value (Hyaluronic Acid; 3 ppm)?
**A.** +11%

**Q.** What about the “Hyaluronic Acid: Percentage of variation” value (Hyaluronic Acid; 5 ppm) of the same substance?
**A.** 0%

**Q.** And the “Hyaluronic Acid: Percentage of variation” value (Hyaluronic Acid; 7.3 ppm)?
**A.** −1%

**Q.** What about the “Collagen I: Percentage of variation” value (Collagen I; 1 ppm) of the same substance?
**A.** +9%

**Q.** And the “Collagen I: Percentage of variation” value (Collagen I; 3 ppm)?
**A.** −11%

**Q.** What about the “Collagen I: Percentage of variation” value (Collagen I; 5 ppm) of the same substance?
**A.** +11%

**Q.** And the “Collagen I: Percentage of variation” value (Collagen I; 5 ppm, listed as N-Palmitoyl-Gly-His-Lys)?
**A.** +11%

**Q.** What about the “Collagen I: Percentage of variation” value (Collagen I; 7.3 ppm) of the same substance?
**A.** −9%

**Q.** And the “Collagen I: Percentage of variation” value (Collagen I; 7.3 ppm, listed as tripeptide)?
**A.** reduction in synthesis

**Q.** And the “effect on biomolecule synthesis under these experimental conditions (in words)” value (Collagen I)?
**A.** essentially no effect

**Q.** What about the “Collagen IV: Percentage of variation” value (Collagen IV; 1 ppm) of the same substance?
**A.** +5%

**Q.** And the “Collagen IV: Percentage of variation” value (Collagen IV; 3 ppm)?
**A.** −4%

**Q.** And the “Collagen IV: Percentage of variation” value (Collagen IV; 5 ppm)?
**A.** +6%

**Q.** What about the “Collagen IV: Percentage of variation” value (Collagen IV; 7.3 ppm) of the same substance?
**A.** −9%

**Q.** What does the source list for “N-Palmitoyl-Lys-Thr-Thr-Lys-Ser (Palmitoyl-KTTKS) [Pal KTTKS, commercially successful pentapeptide, MATRIXYL, available from SEDERMA, reference compound]”?
**A.** Fibronectin: Percentage of variation with respect to solvent (Fibronectin; 1 ppm): +24%; Fibronectin: Percentage of variation with respect to solvent (Fibronectin; 2 ppm): +20%; Fibronectin: Percentage of variation with respect to solvent (Fibronectin; 4 ppm): +74%; Fibronectin: Percentage of variation with respect to solvent (Fibronectin; 8 ppm): +100%; Hyaluronic Acid: Percentage of variation with respect to solvent (Hyaluronic Acid; 1 ppm): +3%; Hyaluronic Acid: Percentage of variation with respect to solvent (Hyaluronic Acid; 2 ppm): +26%; Hyaluronic Acid: Percentage of variation with respect to solvent (Hyaluronic Acid; 4 ppm): +28%; Hyaluronic Acid: Percentage of variation with respect to solvent (Hyaluronic Acid; 8 ppm): +31%; Collagen I: Percentage of variation with respect to solvent (Collagen I; 1 ppm): +8%; Collagen I: Percentage of variation with respect to solvent (Collagen I; 2 ppm): +30%; Collagen I: Percentage of variation with respect to solvent (Collagen I; 4 ppm): +48%; Collagen I: Percentage of variation with respect to solvent (Collagen I; 8 ppm): +93%; Collagen IV: Percentage of variation with respect to solvent (Collagen IV; 1 ppm): +6%; Collagen IV: Percentage of variation with respect to solvent (Collagen IV; 2 ppm): +12%; Collagen IV: Percentage of variation with respect to solvent (Collagen IV; 4 ppm): +15%; Collagen IV: Percentage of variation with respect to solvent (Collagen IV; 8 ppm): +22%

**Q.** Which results are given for Oleoyl-RGD?
**A.** Collagen I: Percentage of variation with respect to solvent (Collagen I; 1 ppm): +5%; Collagen I: Percentage of variation with respect to solvent (Collagen I; 3 ppm): −3%; collagen I stimulation (in words) (Collagen I): do not show collagen I stimulation

**Q.** What does the source list for “Oleoyl-RGDS [oleoyl derivative of RGDS=Arg-Gly-Asp-Ser]”?
**A.** Collagen I: Percentage of variation with respect to solvent (Collagen I; 1 ppm): −7%; Collagen I: Percentage of variation with respect to solvent (Collagen I; 3 ppm): −2%; collagen I stimulation (in words) (Collagen I): do not show collagen I stimulation

**Q.** With “Pal-YGGF (Palmitoyl-YGGF) [palmitoyl derivative of YGGF=Tyr-Gly-Gly-Phe, fragment of enkephaline]” as the substance, how does the “Collagen I: Percentage of variation” value (Collagen I; 1 ppm) read?
**A.** +5%

**Q.** What about the “Collagen I: Percentage of variation” value (Collagen I; 3 ppm) of the same substance?
**A.** −6%

**Q.** What about the “Collagen I: Percentage of variation” value (Collagen I; 5 ppm) of the same substance?
**A.** +4%

**Q.** What about the “collagen I stimulation (in words)” value (Collagen I) of the same substance?
**A.** do not show collagen I stimulation

**Q.** Which “Fibronectin: Percentage of variation” value (Fibronectin; 10^E−6%) does the source give for “Transforming Growth Factor-β [TGF-β, reference compound]” here?
**A.** +176%

**Q.** And the “Hyaluronic Acid: Percentage of variation” value (Hyaluronic Acid; 10^E−6%)?
**A.** +43%

**Q.** And the “Collagen IV: Percentage of variation” value (Collagen IV; 10^E−6%)?
**A.** +4%

**Q.** Which “collagen stimulating activity (in words)” value (collagen [2]) does the source give for Val-Trp here?
**A.** no significant collagen stimulating activity
